The subject of one test is S. aureus. The experiment in a line: MIC against S. aureus. Format: cell-based, Staphylococcus aureus. The following applies: Gram-positive; measured in duplicate.
Another test concerns E. cloacae. The experiment in a line: MIC against E. cloacae. Particulars: Gram-negative; measured in duplicate. It counts as cell-based.
The subject of another test is E. coli. The experiment in a line: MIC against E. coli. It counts as cell-based, Escherichia coli. Particulars: Gram-negative; measured in duplicate.
Another test deals with A. baumannii. The experiment in a line: MIC against A. baumannii. It counts as cell-based, Acinetobacter baumannii. The following applies: Gram-negative; measured in duplicate.
The next test has as its system P. aeruginosa. The experiment in a line: MIC against P. aeruginosa. Format: cell-based, Pseudomonas aeruginosa. The following applies: Gram-negative; measured in duplicate.
A further test relates to E. faecium. The experiment in a line: MIC against E. faecium. Format: cell-based, Enterococcus faecium. Particulars: Gram-positive; measured in duplicate.
Another test has as its system K. pneumoniae. The experiment in a line: MIC against K. pneumoniae. Particulars: Gram-negative; measured in duplicate. It counts as cell-based, Klebsiella pneumoniae.
For a further test, the system named is VRE clinical isolates. The experiment in a line: MIC against VRE clinical isolates. Format: cell-based, Vancomycin-resistant Enterococcus. The following applies: Figure 3, Table S9.
For another test, the system named is MDR S. aureus strains. The experiment in a line: MIC against MDR S. aureus strains. Particulars: Figure 3, Table S9. Format: cell-based.

Bounds are passed on as bounds.

As to Laterocidine, the “MIC S. aureus” value in the test on S. aureus was above 128 µg/mL. For the same substance, in the test with E. cloacae, the “MIC E. cloacae” value stood at 1 µg/mL. The “MIC E. coli” value in the test on E. coli is 0.5 µg/mL. Moreover, the “MIC A. baumannii” value against A. baumannii is 0.5 µg/mL. Moreover, in the test on P. aeruginosa, the “MIC P. aeruginosa” value amounted to 2 µg/mL. Moreover, in the test with E. faecium, the “MIC E. faecium” value was above 128 µg/mL. Besides, in the test with K. pneumoniae, the “MIC K. pneumoniae” value came out at 2 µg/mL.
In the case of Paenibacterin, the “MIC S. aureus” value in the test on S. aureus turned out to be 16 µg/mL. Further, the “MIC E. cloacae” value against E. cloacae was found to be 4 µg/mL. For the same substance, the “MIC E. coli” value with E. coli worked out at 4 µg/mL. The “MIC A. baumannii” value against A. baumannii is 8 µg/mL. In addition, the “MIC P. aeruginosa” value in the test with P. aeruginosa was found to be 8 µg/mL. In addition, the “MIC E. faecium” value with E. faecium was 8 µg/mL. In addition, the “MIC K. pneumoniae” value in the test with K. pneumoniae is 8 µg/mL.
Consider Tridecaptin A, for which, in the test with VRE clinical isolates, the “MIC against VRE clinical isolates” value turned out to be 128 µg/mL. Also, in the test with S. aureus, the “MIC S. aureus” value turned out to be 128 µg/mL. Also, in the test with E. cloacae, the “MIC E. cloacae” value amounted to 2 µg/mL. The “MIC against MDR S. aureus strains” value against MDR S. aureus strains turned out to be 128 µg/mL. In addition, the “MIC E. coli” value in the test with E. coli amounted to 1 µg/mL. For the same substance, the “MIC A. baumannii” value in the test with A. baumannii was 4 µg/mL. In the test on P. aeruginosa, the “MIC P. aeruginosa” value amounted to 64 µg/mL. In addition, the “MIC E. faecium” value in the test with E. faecium turned out to be 64 µg/mL. For the same substance, in the test with K. pneumoniae, the “MIC K. pneumoniae” value was found to be 1 µg/mL.
